Literature values, collected in patent US8933122B2, “Use of cationic surfactants as sporicidal agents” (Laboratorios Miret, S.A., priority 2008, dated 2015).

What was measured:
[1] = test system: Aspergillus niger ATCC 14604; settings: Fungi; cited from earlier work
[2] = test system: Pseudomonas aeruginosa ATCC 9027; settings: Gram − Bacteria; cited from earlier work
[3] = test system: Serratia marcenses CECT 274; settings: Gram − Bacteria; cited from earlier work
[4] = human beings; cited from earlier work
[5] = test system: Alcaligenes faecalis ATCC 8750; settings: Gram − Bacteria; cited from earlier work
[6] = test system: Rhodotorula rubra CECT 1158; settings: Yeast; cited from earlier work
[7] = rats; cited from earlier work
[8] = test system: Saccharomyces cerevisiae ATCC 9763; settings: Yeast; cited from earlier work
[9] = test system: Aureobasidium pullulans ATCC 9348; settings: Fungi; cited from earlier work
[10] = test system: Listeria monocytogenes ATCC 7644; settings: Gram + Bacteria; cited from earlier work

In the case of `CCCCCCCCCCCC(=O)N[C@@H](CCCN=C(N)N)C(=O)OCC.Cl` [LAE, ethyl ester of the lauramide of the arginine monohydrochloride], the M.I.C. [1] is listed as 32 ppm, the M.I.C. [2] is listed as 64 ppm and the M.I.C. [3] is listed as 32 ppm. For the same compound, the “tolerability and toxicity in practical use” value [4] was “well tolerated and to display a very low toxicity to human beings”, the M.I.C. [5] was 64 ppm and the M.I.C. [6] was 16 ppm. For the same compound, the absorption and metabolism [7] was “fast absorption and metabolization into naturally-occurring amino acids and the fatty acid lauric acid, which are eventually excreted as carbon dioxide and urea”, the M.I.C. [8] was 32 ppm and the M.I.C. [9] was 16 ppm. The M.I.C. [10] was 10 ppm.
